Broadly, the stoichiometry N is the number of molecules, sites or subunits per partner or assembly.

One data set concerns PNPase core. Conditions: X-ray, PDB: 3GCM; cited from earlier work. The source says: Previous studies identified a PNPase binding motif encompassing residues 1039–1061 at the very C-terminus of E. coli RNase E (Fig. 1). […] Following the β-strand, there is a stretch of eight residues containing three prolines and two charged amino acids. The RNase E residues 1048–1061 will be referred to as ‘β1 motif’ hereafter (Fig. 2A). Multiple sequence alignment s ...

Data set [1] deals with the molecule itself. In words: cryo-EM structure; purified PNPase core and RNase E-muGFP-CHis mixed 1:2, complex separated on Superdex 200 Increase in 20 mM Tris–HCl pH 8.0, 25 mM MgCl2, 150 mM KCl, 1 mM TCEP; 8 mM CHAPSO; E. coli and S. enterica proteins.

Regarding “RNase E residues 1021–1061: peptide encompassing RNase E residues 1021–1061 in crystal structure with PNPase (EAPRHSDWQRPTFAFEGKGAAGGHTATHHASAAPARPQPVE; UniProt P21513 1021-1061, looked up, fragment)”, the “binding mode in crystal structure” value with PNPase core is on record as “forms a β-strand that extends an exposed β-sheet of the PNPase core”.

B1: S. enterica PNPase core (domain or fragment, Salmonella enterica serovar Typhimurium, UniProt Q8ZLT3 1-552, looked up)
chain: MLNPIVRKFQYGQHTVTLETGMMARQATAAVMVSMDDTAVFVTVVGQKKAKPGQDFFPLTVNYQERTYAAGRIPGSFFRREGRPSEGETLIARLIDRPVRPLFPEGFVNEVQVIATVVSVNPQVNPDIVAMIGASAALSLSGIPFNGPIGAARVGYINDQYVLNPTQDELKESKLDLVVAGTEAAVLMVESEAELLSEDTMLGAVVFGHEQQQVVIQAINDLVKEAGKPRWDWQPEAVNDALNARVAALAESRLSDAYRITDKQERYAQVDVIKSETIEQLIAEDETLDANELGEILHAIEKNVVRSRVLAGEPRIDGREKDMIRGLDVRTGVLPRTHGSALFTRGETQALVTATLGTARDAQVLDELMGERTDSFLFHYNFPPYSVGETGMVGSPKRREIGHGRLAKRGVLAVMPDMDKFPYTVRVVSEITESNGSSSMASVCGASLALMDAGVPIKAAVAGIAMGLVKEGDNYVVLSDILGDEDHLGDMDFKVAGSRDGISALQMDIKIEGITKEIMQVALNQAKGARLHILGVMEQAINAPRGDISEFA
notes: polynucleotide phosphorylase (PNPase) core, Salmonella enterica serovar Typhimurium, aa 1–552; also called Salmonella typhimurium polynucleotide phosphorylase core; source: E. coli Evo21(DE3), purified (Ni-NTA, intein cleavage, HIC, Q, Superdex 200); not shown: Mycobacterium xenopi GyrA intein, C-terminal, cleaved; His8, C-terminal, cleaved
For the molecule B1, the “stoichiometry N” value in data set [1] was 3.

The record behind these values is article PMC12489471, “A multi-dentate, cooperative interaction between endo- and exo-ribonucleases within the bacterial RNA degradosome” (Nucleic Acids Research, 2025).
